The results in this text go back to US8557763B2, “Synthetic peptides that enhance tight junction permeability” (Alba Therapeutics Corporation, priority 2007, dated 2013).

Experiment [1] deals with CaCo2 monolayers. Description: Trans Epithelial Electric Resistance (TEER) across CaCo2 monolayers. On the set-up: key to Reduced TEER: + indicates an enhancement of the permeability of the tight junctions were observed; − indicates no enhancement of permeability was observed. It counts as cell-based. The following applies: CaCo2 monolayers. An excerpt: (§1) Agonists of tight junctions can be identified by their ability to enhance the flux of compounds (e.g. ions, Lucifer Yellow) through a cell monolayer that comprises tight junctions; or by their ability to reduce TEER across a cell monolayer that comprises tight junctions. Treatment of CaCo2 monolayers with peptide FCIGRL (SEQ ID NO: 1) led to a 51-fold enhancement of Lucifer Yellow permeability through CaCo2 monolayers compared to vehicle alone.
Treatment of CaCo2 monolayers with peptide FCIGRL led to a 16-fold decrease in TEER across CaCo2 monolayers compared to vehicle alone.
(§2) Tight junction agonists can be identified and tested using the following method:
(§3) Determination of TEER and Lucifer Yellow Flux
(§4) Prepare Modified Hank's Balanced Salt Solution (MHBSS) by obtaining 1 L bottle of HBSS removing 10 ml of HBSS and replacing it with 10 ml HEPES buffer pH 7.0. Adjust pH to 7.4±0.1 using concentrated NaOH (10N).
(§5) Remove CaCo-2 cells from incubator, grown on 12-well, 3.0 μM, polycarbonate Transwell® filters (Corning) and record passage#, date cells seeded and age in days.
(§6) Aspirate cell culture medium from both the apical (AP) and basolateral (BL) compartments, replacing with 0.5 ml and 1.5 ml of MHBSS, respectively. Incubate cells at 37° C. for 30 minutes.
Using the MilliCell®-ERS instrument (Millipore), measure and record the transepithelial electrical resistance (TEER) across each filter and record.
(§7) Aspirate solution from the apical compartment of each filter (n=3 per condition) and replace with 0.5 ml of control and test solutions containing Lucifer Yellow and test compound if appropriate.
(§8) Place all plates into incubator set at 37° C. (±0.2), 50 RPM (±5) for a total of 180 minutes.
At t=30, 60, 120 and 180 minutes, measure and record the transepithelial electrical resistance (TEER) across each filter using the MilliCell-ERS instrument.
(§9) Cells: CaCo-2 cells passage 40-60 grown on Transwell® plates for 21-28 days
(§10) Culture Medium: DMEM supplemented with 10% fetal bovine serum, 1% NEAA, 1% Penn/Strep
(§11) Buffers: Hank's Balanced Salt Solution (HBSS) without calcium and magnesium
(§12) Flasks: 100×20 mm Tissue culture dish Falcon.
(§13) Plates: 12 well polycarbonate Transwell® filters; 0.3 uM pore size

Experiment [2] has as its system CaCo2 monolayers. Description: Lucifer Yellow (LY) permeability assay through CaCo2 monolayers. It is filed as cell-based. On the set-up: key to Enhanced LY permeability: + indicates an enhancement of the permeability of the tight junctions were observed; − indicates no enhancement of permeability was observed. The following applies: CaCo2 monolayers, Lucifer Yellow flux.
Text: as §1, §2, §3, §4, §5, §6, §7, §8
At t=60, 120 and 180 minutes remove […] from each basolateral compartment and place it in a 96-well plate for Lucifer Yellow analysis, replace with 100 μl of MHBSS.
Make a Lucifer Yellow standard curve with the following dilutions (7500 μM, 3750 μM, 750 μM, 375 μM, 37.5 μM, 7.5 μM, 3.75 μM, 0.75 μM) and pipette 100 μL of each into a 96-well plate except for the first three standards mentioned above which require a 1:10 dilutions prior to transferring to the 96-well plate.
Harvest the remaining start solutions and what is left in each apical compartment into 1.5 ml vials. Freeze at −20° C. for future analysis.
Analyze each 96-well plate in a Tecan Spectra Fluor Plus using Magellan at 485 and 535 nm.
as §9, §10, §11, §12, §13

Where no end group is shown, it is not given here. [ ]: non-standard residue; d: D form. AllylGly = C=CC[C@H](N)C(=O)O

On to “10 (E[AllylGly]IGRL-NH2; N-terminus assumed; SMILES C=CC[C@H](NC(=O)[C@@H](N)CCC(=O)O)C(=O)N[C@H](C(=O)NCC(=O)N[C@@H](CCCNC(=N)N)C(=O)N[C@@H](CC(C)C)C(N)=O)[C@@H](C)CC) [compound 10]”, for which, in experiment [1], the “Reduced TEER” value is reported as “−”. The “Enhanced LY permeability” value in experiment [2] is reported as “−”.

As to “7 (L[AllylGly]IGRL-NH2; N-terminus assumed; SMILES C=CC[C@H](NC(=O)[C@@H](N)CC(C)C)C(=O)N[C@H](C(=O)NCC(=O)N[C@@H](CCCNC(=N)N)C(=O)N[C@@H](CC(C)C)C(N)=O)[C@@H](C)CC) [compound 7]”, the “Reduced TEER” value in experiment [1] is “−”. Besides, the “Enhanced LY permeability” value in experiment [2] was “+”.

“29 (F[AllylGly]GGRL-NH2; N-terminus assumed; SMILES C=CC[C@H](NC(=O)[C@@H](N)Cc1ccccc1)C(=O)NCC(=O)NCC(=O)N[C@@H](CCCNC(=N)N)C(=O)N[C@@H](CC(C)C)C(N)=O) [compound 29]”: in experiment [1], the “Reduced TEER” value is given as “+”. In experiment [2], the “Enhanced LY permeability” value was “+”.

Turning to “19 (P[AllylGly]IGRL-NH2; N-terminus assumed; SMILES C=CC[C@H](NC(=O)[C@@H]1CCCN1)C(=O)N[C@H](C(=O)NCC(=O)N[C@@H](CCCNC(=N)N)C(=O)N[C@@H](CC(C)C)C(N)=O)[C@@H](C)CC) [compound 19]”, the “Reduced TEER” value in experiment [1] is reported as “−”. Besides, the “Enhanced LY permeability” value in experiment [2] is recorded as “−”.

In the case of “47 (F[AllylGly]IERL-NH2; N-terminus assumed; SMILES C=CC[C@H](NC(=O)[C@@H](N)Cc1ccccc1)C(=O)N[C@H](C(=O)N[C@@H](CCC(=O)O)C(=O)N[C@@H](CCCNC(=N)N)C(=O)N[C@@H](CC(C)C)C(N)=O)[C@@H](C)CC) [compound 47]”, the “Reduced TEER” value in experiment [1] was “+”. The “Enhanced LY permeability” value in experiment [2] is “+”.

Consider “42 (F[AllylGly]IARL-NH2; N-terminus assumed; SMILES C=CC[C@H](NC(=O)[C@@H](N)Cc1ccccc1)C(=O)N[C@H](C(=O)N[C@@H](C)C(=O)N[C@@H](CCCNC(=N)N)C(=O)N[C@@H](CC(C)C)C(N)=O)[C@@H](C)CC) [compound 42]”, for which the “Reduced TEER” value in experiment [1] is given as “+”. In experiment [2], the “Enhanced LY permeability” value is reported as “+”.

“55 (F[AllylGly]IGHL-NH2; N-terminus assumed; SMILES C=CC[C@H](NC(=O)[C@@H](N)Cc1ccccc1)C(=O)N[C@H](C(=O)NCC(=O)N[C@@H](Cc1c[nH]cn1)C(=O)N[C@@H](CC(C)C)C(N)=O)[C@@H](C)CC) [compound 55]”: the “Reduced TEER” value in experiment [1] is “−”. In experiment [2], the “Enhanced LY permeability” value is “−”.

Take “57 (F[AllylGly]IGEL-NH2; N-terminus assumed; SMILES C=CC[C@H](NC(=O)[C@@H](N)Cc1ccccc1)C(=O)N[C@H](C(=O)NCC(=O)N[C@@H](CCC(=O)O)C(=O)N[C@@H](CC(C)C)C(N)=O)[C@@H](C)CC) [compound 57]”: in experiment [1], the “Reduced TEER” value is “−”. Moreover, in experiment [2], the “Enhanced LY permeability” value was “−”.

As to “56 (F[AllylGly]IGDL-NH2; N-terminus assumed; SMILES C=CC[C@H](NC(=O)[C@@H](N)Cc1ccccc1)C(=O)N[C@H](C(=O)NCC(=O)N[C@@H](CC(=O)O)C(=O)N[C@@H](CC(C)C)C(N)=O)[C@@H](C)CC) [compound 56]”, the “Reduced TEER” value in experiment [1] is “+”. In addition, the “Enhanced LY permeability” value in experiment [2] was “+”.

On to “25 (F[AllylGly]LGRL-NH2; N-terminus assumed; SMILES C=CC[C@H](NC(=O)[C@@H](N)Cc1ccccc1)C(=O)N[C@@H](CC(C)C)C(=O)NCC(=O)N[C@@H](CCCNC(=N)N)C(=O)N[C@@H](CC(C)C)C(N)=O) [compound 25]”, for which the “Reduced TEER” value in experiment [1] was “+”. In experiment [2], the “Enhanced LY permeability” value is on record as “+”.

Take 2 (F[AllylGly]IGRL) [compound 2]: the “Reduced TEER” value in experiment [1] is listed as “+”. In addition, in experiment [2], the “Enhanced LY permeability” value is listed as “+”.

“52 (F[AllylGly]INRL-NH2; N-terminus assumed; SMILES C=CC[C@H](NC(=O)[C@@H](N)Cc1ccccc1)C(=O)N[C@H](C(=O)N[C@@H](CC(N)=O)C(=O)N[C@@H](CCCNC(=N)N)C(=O)N[C@@H](CC(C)C)C(N)=O)[C@@H](C)CC) [compound 52]”: in experiment [1], the “Reduced TEER” value is recorded as “+”. Also, the “Enhanced LY permeability” value in experiment [2] was “+”.

Consider “78 (F[AllylGly]IGRG-NH2; N-terminus assumed; SMILES C=CC[C@H](NC(=O)[C@@H](N)Cc1ccccc1)C(=O)N[C@H](C(=O)NCC(=O)N[C@@H](CCCNC(=N)N)C(=O)NCC(N)=O)[C@@H](C)CC) [compound 78]”, for which, in experiment [1], the “Reduced TEER” value was “−”. The “Enhanced LY permeability” value in experiment [2] is reported as “+”.

Take “3 (F[AllylGly]IGR-NH2; N-terminus assumed; SMILES C=CC[C@H](NC(=O)[C@@H](N)Cc1ccccc1)C(=O)N[C@H](C(=O)NCC(=O)N[C@@H](CCCNC(=N)N)C(N)=O)[C@@H](C)CC) [compound 3]”: in experiment [1], the “Reduced TEER” value is recorded as “−”. In experiment [2], the “Enhanced LY permeability” value is on record as “−”.

As for “60 (F[AllylGly]IGAL-NH2; N-terminus assumed; SMILES C=CC[C@H](NC(=O)[C@@H](N)Cc1ccccc1)C(=O)N[C@H](C(=O)NCC(=O)N[C@@H](C)C(=O)N[C@@H](CC(C)C)C(N)=O)[C@@H](C)CC) [compound 60]”, in experiment [2], the “Enhanced LY permeability” value was “+”.

Consider “58 (F[AllylGly]IGQL-NH2; N-terminus assumed; SMILES C=CC[C@H](NC(=O)[C@@H](N)Cc1ccccc1)C(=O)N[C@H](C(=O)NCC(=O)N[C@@H](CCC(N)=O)C(=O)N[C@@H](CC(C)C)C(N)=O)[C@@H](C)CC) [compound 58]”, for which the “Reduced TEER” value in experiment [1] was “−”. For the same substance, the “Enhanced LY permeability” value in experiment [2] is reported as “−”.

For “28 (F[AllylGly]VGRL-NH2; N-terminus assumed; SMILES C=CC[C@H](NC(=O)[C@@H](N)Cc1ccccc1)C(=O)N[C@H](C(=O)NCC(=O)N[C@@H](CCCNC(=N)N)C(=O)N[C@@H](CC(C)C)C(N)=O)C(C)C) [compound 28]”, the “Reduced TEER” value in experiment [1] is listed as “−”. The “Enhanced LY permeability” value in experiment [2] was “−”.

As to “68 (F[AllylGly]IGTL-NH2; N-terminus assumed; SMILES C=CC[C@H](NC(=O)[C@@H](N)Cc1ccccc1)C(=O)N[C@H](C(=O)NCC(=O)N[C@H](C(=O)N[C@@H](CC(C)C)C(N)=O)[C@@H](C)O)[C@@H](C)CC) [compound 68]”, in experiment [1], the “Reduced TEER” value is “+”.

For “9 (T[AllylGly]IGRL-NH2; N-terminus assumed; SMILES C=CC[C@H](NC(=O)[C@@H](N)[C@@H](C)O)C(=O)N[C@H](C(=O)NCC(=O)N[C@@H](CCCNC(=N)N)C(=O)N[C@@H](CC(C)C)C(N)=O)[C@@H](C)CC) [compound 9]”, the “Reduced TEER” value in experiment [1] is “−”.

For “70 (F[AllylGly]IGWL-NH2; N-terminus assumed; SMILES C=CC[C@H](NC(=O)[C@@H](N)Cc1ccccc1)C(=O)N[C@H](C(=O)NCC(=O)N[C@@H](Cc1c[nH]c2ccccc12)C(=O)N[C@@H](CC(C)C)C(N)=O)[C@@H](C)CC) [compound 70]”, the “Enhanced LY permeability” value in experiment [2] is on record as “+”.

Turning to “81 (F[AllylGly]IGRT-NH2; N-terminus assumed; SMILES C=CC[C@H](NC(=O)[C@@H](N)Cc1ccccc1)C(=O)N[C@H](C(=O)NCC(=O)N[C@@H](CCCNC(=N)N)C(=O)N[C@H](C(N)=O)[C@@H](C)O)[C@@H](C)CC) [compound 81]”, in experiment [2], the “Enhanced LY permeability” value is listed as “−”.

Turning to “14 (D[AllylGly]IGRL-NH2; N-terminus assumed; SMILES C=CC[C@H](NC(=O)[C@@H](N)CC(=O)O)C(=O)N[C@H](C(=O)NCC(=O)N[C@@H](CCCNC(=N)N)C(=O)N[C@@H](CC(C)C)C(N)=O)[C@@H](C)CC) [compound 14]”, the “Reduced TEER” value in experiment [1] is recorded as “−”.

For the substance “69 (F[AllylGly]IGIL-NH2; N-terminus assumed; SMILES C=CC[C@H](NC(=O)[C@@H](N)Cc1ccccc1)C(=O)N[C@H](C(=O)NCC(=O)N[C@H](C(=O)N[C@@H](CC(C)C)C(N)=O)[C@@H](C)CC)[C@@H](C)CC) [compound 69]”, the “Reduced TEER” value in experiment [1] is reported as “−”.
